# According to patent US20050233974A1, “Treating infectious diseases using ice inhibitors” (priority 2003, published 2005):
# Experiments:
# [1] = system: P. aeruginosa strain 19660; test: corneal infection model, P. aeruginosa ATCC strain 19660; assay type: in vivo, B6 mice
# Protocol: Eight week old female B6 mice (The Jackson Laboratory, Bar Harbor, Me.) were used in these experiments. The left cornea of each anesthetized mouse was scarified with three parallel 1 mm incisions using a sterile 25⅝ gauge needle under a stereoscopic microscope. […] Eyes were examined macroscopically at 1 day post-infection (p.i.) and at times described below to ensure that all mice were similarly infected and to monitor the course of disease. All animals were treated humanely and in full compliance with the Association for Research in Vision and Ophthalmology resolution on usage and treatment of animals in research.
# Worth, Tex.) begun at 18 h p.i. and then 3×/day for 7 days. Initiation of ICE inhibitor therapy at 18 h p.i. was chosen to test experimentally in order to provide more clinically relevant data. In addition, by this time point, it would be expected that a patient would notice ocular symptoms such as haziness, discomfort and pain and would seek care.
# Mice (n=5/group) were color coded and examined in masked fashion by two independent observers at 1, 3, 5 and 7 days p.i. to grade the severity of disease after P. aeruginosa infection.
# The samples were subjected to three freeze-thaw cycles and then centrifuged at 14,000 rpm for 20 min. […] The change in absorbance at 460 nm was continuously monitored for 5 min. The results were expressed as units of MPO/cornea.
# For this, individual corneas were homogenized in sterile PBS and aliquots (100 μl) of serial dilutions were plated onto Pseudomonas isolation agar (Difco, Detroit, Mich.) plates in triplicate. Plates were incubated for 24 h at 37° C. Results were expressed as log10 number of CFU/cornea±SEM.
# Corneas (n=5/group) were removed at 7 days p.i. and immediately stored at −70° C. Before analysis, individual corneas were homogenized in 0.1% Tween 20-PBS with a glass Kontes pestle (Fisher, Itasca, Ill.) centrifuged at 5000×g for 10 minutes at 4° C., and supernatants were used to quantify IL-1β and MIP-2 proteins. Results are reported as pg/ml.
# The change in clinical score with time within a group was tested by the Friedman two-way analysis of variance by ranks. The difference in clinical score at each experimental time point between the ICE inhibitor and placebo treated B6 mice was tested by the Mann-Whitney U test. An unpaired, two-tailed Student's t-test was used to determine statistical significance for data from MPO assay, bacterial counts and ELISA analyses between treated and control groups. Mean differences were considered significant at P≦0.05. Experiments were repeated at least twice to ensure reproducibility and representative data from a single experiment are shown.
# [2] = system: Pseudomonas isolates resistant to ciprofloxacin; conditions: 22 ciprofloxacin-resistant isolates of 141 culture-proven cases; cited from earlier work
smiles,measurement,setting,value
O=C(O)c1cn(C2CC2)c2cc(N3CCNCC3)c(F)cc2c1=O [ciprofloxacin],histopathological examination of eyes,[1]; 7 days p.i.,heavier inflammatory cells infiltrate in the anterior chamber and adherent to the corneal endothelium
same,viable bacteria in cornea (plate counts),"[1]; 7 days p.i., ICE inhibitor vs. placebo (P=0.02)",No bacterial colonies were isolated
same,protein levels of MIP-2 in cornea (ELISA),"[1]; 7 days p.i., ICE inhibitor vs. vehicle (P=0.012), with ciprofloxacin vs. vehicle and ciprofloxacin (P=0.04)",markedly reduced
same,protein levels of IL-1β in cornea (ELISA),"[1]; 7 days p.i., ICE inhibitor vs. vehicle (P=0.023), with ciprofloxacin vs. vehicle and ciprofloxacin (P=0.036)",markedly reduced
same,slit lamp microscopy of cornea,[1]; day 7 p.i.,heavier cellular infiltration in the cornea as well as in the anterior chamber
same,mean MIC,[2],43 µg/mL
